PubChem BioAssay (NCI)
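Exposure lasted 48 hours, with cells grown in 96-well plates and compounds tested at five concentrations. TGI: total growth inhibition.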

What was measured:
Assay in all cases: DTP human tumour cell line panel, 48 h
MDA-MB-435 = test system: MDA-MB-435
KM12 colon = test system: KM12 colon
COLO 205 colon = test system: COLO 205 colon
NCI-H23 lung = test system: NCI-H23 lung
SF-539 CNS = test system: SF-539 CNS
SR leukemia = test system: SR leukemia
CAKI-1 renal = test system: CAKI-1 renal
786-0 renal = test system: 786-0 renal
NCI-H460 lung = test system: NCI-H460 lung
A498 renal = test system: A498 renal
HS 578T breast = test system: HS 578T breast
UACC-257 melanoma = test system: UACC-257 melanoma
SK-OV-3 ovarian = test system: SK-OV-3 ovarian
OVCAR-4 ovarian = test system: OVCAR-4 ovarian
RXF 393 renal = test system: RXF 393 renal
SK-MEL-28 melanoma = test system: SK-MEL-28 melanoma
MCF7 breast = test system: MCF7 breast
BT-549 breast = test system: BT-549 breast
HCC-2998 colon = test system: HCC-2998 colon
SF-295 CNS = test system: SF-295 CNS

| SMILES | TGI (MDA-MB-435) | TGI (KM12 colon) | TGI (COLO 205 colon) | TGI (NCI-H23 lung) | TGI (SF-539 CNS) | TGI (SR leukemia) | TGI (CAKI-1 renal) | TGI (786-0 renal) | TGI (NCI-H460 lung) | TGI (A498 renal) | TGI (HS 578T breast) | TGI (UACC-257 melanoma) | TGI (SK-OV-3 ovarian) | TGI (OVCAR-4 ovarian) | TGI (RXF 393 renal) | TGI (SK-MEL-28 melanoma) | TGI (MCF7 breast) | TGI (BT-549 breast) | TGI (HCC-2998 colon) | TGI (SF-295 CNS) |
| --- | --- | --- | --- | --- | --- | --- | --- | --- | --- | --- | --- | --- | --- | --- | --- | --- | --- | --- | --- | --- |
| c1cc2[nH]snc2c2cncc12 | > 100 µM | > 100 µM | > 100 µM | > 100 µM | > 100 µM | > 100 µM | > 100 µM | > 100 µM | > 100 µM | > 100 µM | > 100 µM | > 100 µM | > 100 µM | > 100 µM | > 100 µM | > 100 µM | > 100 µM | > 100 µM | > 100 µM | > 100 µM |
| CC(C)C(C/C=C1/CC(CO)(COC(=O)C(C)(C)C)OC1=O)C(C)C (stereo not given) | 21.5 µM | 27.3 µM | 5.32 µM | 23.8 µM | 15.4 µM | > 50.5 µM | 17.9 µM | 18.2 µM | 25.7 µM | 21.8 µM | 11 µM | 32.7 µM | 30.7 µM | 31.5 µM | 30.5 µM | 30.6 µM | 35.6 µM | 26.9 µM | 15.2 µM | 17.9 µM |
| Cc1cc(S(=O)(=O)Nc2nc3ccccc3[nH]2)c(S)cc1Cl | > 100 µM | > 100 µM | > 100 µM | > 100 µM | > 100 µM | > 100 µM | > 100 µM | > 100 µM | > 100 µM | > 100 µM | > 100 µM | > 100 µM | > 100 µM | > 100 µM | > 100 µM | 73.5 µM | > 100 µM | > 100 µM | > 100 µM | > 100 µM |
| O=C1N(CN2CCOCC2)CN(CN2CCOCC2)C(=O)N1Cc1ccc(-c2ccc(CN3C(=O)N(CN4CCOCC4)CN(CN4CCOCC4)C3=O)cc2)cc1 | 13.6 µM | 77.3 µM | > 41.9 µM | 47.5 µM | > 74.3 µM | 18.9 µM | 29.2 µM | 79.4 µM | 54.5 µM | 44.1 µM | > 100 µM | 37.9 µM | > 100 µM | 39.3 µM | 27.3 µM | 36.2 µM | > 100 µM | 39.1 µM | 28.3 µM | 65.6 µM |
| CC(=O)Nc1ccc(-c2nc3ccccc3s2)cc1Cl | > 100 µM | > 100 µM | > 100 µM | > 100 µM | > 100 µM | > 100 µM | > 100 µM | > 100 µM | > 100 µM | > 100 µM | 93.3 µM | > 100 µM | > 100 µM | > 100 µM | 90.3 µM | > 100 µM | > 100 µM | > 100 µM | > 100 µM | > 100 µM |
